# Measured values published in ChEMBL document CHEMBL4507289, “Data for DCP probe GSM1” (2021).
# Tests used:
# [1] = target: Ephrin type-B receptor 2 (Homo sapiens) (UniProt P29323); settings: Compound concentration 1000.0 nM
# [2] = target: Death-associated protein kinase 3 (Homo sapiens) (UniProt O43293); settings: Compound concentration 1000.0 nM
# [3] = system: Phosphatidylinositol 4,5-bisphosphate 3-kinase catalytic subunit alpha isoform (Homo sapiens), P42336 [E545A]; settings: Compound concentration 1000.0 nM
# Phosphatidylinositol 4,5-bisphosphate 3-kinase catalytic subunit alpha isoform (Homo sapiens), P42336 [E545A], sequence (P42336 whole entry E545A, canonical isoform): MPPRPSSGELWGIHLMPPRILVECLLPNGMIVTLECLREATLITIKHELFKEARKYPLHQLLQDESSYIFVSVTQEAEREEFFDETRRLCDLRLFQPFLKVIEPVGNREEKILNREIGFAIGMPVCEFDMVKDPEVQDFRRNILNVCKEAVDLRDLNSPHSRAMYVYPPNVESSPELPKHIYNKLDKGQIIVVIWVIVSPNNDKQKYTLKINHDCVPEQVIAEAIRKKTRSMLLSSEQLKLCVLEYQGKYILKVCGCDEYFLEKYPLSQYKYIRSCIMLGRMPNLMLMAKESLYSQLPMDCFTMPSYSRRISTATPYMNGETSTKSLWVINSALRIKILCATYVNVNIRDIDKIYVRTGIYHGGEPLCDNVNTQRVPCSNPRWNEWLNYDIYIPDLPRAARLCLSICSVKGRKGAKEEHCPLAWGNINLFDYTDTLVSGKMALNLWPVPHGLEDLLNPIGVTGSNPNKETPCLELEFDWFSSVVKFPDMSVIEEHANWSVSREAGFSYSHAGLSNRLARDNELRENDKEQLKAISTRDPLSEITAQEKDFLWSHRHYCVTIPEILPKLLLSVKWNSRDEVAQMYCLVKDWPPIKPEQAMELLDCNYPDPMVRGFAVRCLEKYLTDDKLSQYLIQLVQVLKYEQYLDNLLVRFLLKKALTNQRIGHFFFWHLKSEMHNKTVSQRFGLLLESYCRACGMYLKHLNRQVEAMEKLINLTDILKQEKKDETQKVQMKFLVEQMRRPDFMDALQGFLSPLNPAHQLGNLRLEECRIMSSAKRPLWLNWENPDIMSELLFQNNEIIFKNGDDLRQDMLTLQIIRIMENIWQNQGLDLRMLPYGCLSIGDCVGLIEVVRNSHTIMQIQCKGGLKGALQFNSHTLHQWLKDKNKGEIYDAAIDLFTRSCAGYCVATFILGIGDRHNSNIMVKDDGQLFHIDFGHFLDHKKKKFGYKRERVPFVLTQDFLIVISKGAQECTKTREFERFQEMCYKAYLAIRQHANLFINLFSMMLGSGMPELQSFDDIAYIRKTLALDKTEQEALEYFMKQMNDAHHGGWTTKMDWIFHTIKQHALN
# [4] = target: Myosin light chain kinase, smooth muscle (Homo sapiens) (UniProt Q15746); settings: Compound concentration 1000.0 nM
# [5] = target: TGF-beta receptor type-1 (Homo sapiens) (UniProt P36897); settings: Compound concentration 1000.0 nM
# [6] = target: Serine/threonine-protein kinase WNK4 (Homo sapiens) (UniProt Q96J92); settings: Compound concentration 1000.0 nM
# [7] = target: Protein kinase C delta type (Homo sapiens) (UniProt Q05655); settings: Compound concentration 1000.0 nM
# [8] = target: RAC-beta serine/threonine-protein kinase (Homo sapiens) (UniProt P31751); settings: Compound concentration 1000.0 nM
# [9] = target: D(1B) dopamine receptor (Homo sapiens) (UniProt P21918); settings: Compound concentration 10.0 uM
# [10] = target: Mitogen-activated protein kinase 9 (Homo sapiens) (UniProt P45984); settings: Compound concentration 1000.0 nM
# [11] = target: Muscarinic acetylcholine receptor M4 (Homo sapiens) (UniProt P08173); settings: Compound concentration 10.0 uM
# [12] = target: NUAK family SNF1-like kinase 1 (Homo sapiens) (UniProt O60285); settings: Compound concentration 1000.0 nM
# [13] = target: Mitogen-activated protein kinase kinase kinase 7 (Homo sapiens) (UniProt O43318); settings: Compound concentration 1000.0 nM
# Mitogen-activated protein kinase kinase kinase 7 (Homo sapiens), sequence (O43318 whole entry): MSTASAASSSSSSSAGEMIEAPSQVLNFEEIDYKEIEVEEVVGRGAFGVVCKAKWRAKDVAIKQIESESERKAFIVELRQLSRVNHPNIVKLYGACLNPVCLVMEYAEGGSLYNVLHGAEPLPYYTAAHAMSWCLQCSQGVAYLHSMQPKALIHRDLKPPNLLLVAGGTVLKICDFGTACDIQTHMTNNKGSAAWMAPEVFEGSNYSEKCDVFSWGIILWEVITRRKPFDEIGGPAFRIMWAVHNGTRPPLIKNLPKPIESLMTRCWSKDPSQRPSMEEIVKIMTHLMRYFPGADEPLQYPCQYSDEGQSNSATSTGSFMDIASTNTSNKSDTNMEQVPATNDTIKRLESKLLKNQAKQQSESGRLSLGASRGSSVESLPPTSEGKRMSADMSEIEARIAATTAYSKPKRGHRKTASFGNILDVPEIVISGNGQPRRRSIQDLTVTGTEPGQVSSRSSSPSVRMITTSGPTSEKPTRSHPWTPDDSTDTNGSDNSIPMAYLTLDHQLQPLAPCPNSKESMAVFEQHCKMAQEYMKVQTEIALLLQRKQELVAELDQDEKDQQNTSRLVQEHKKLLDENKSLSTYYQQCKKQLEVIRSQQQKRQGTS
# [14] = target: Serine/threonine-protein kinase 10 (Homo sapiens) (UniProt O94804); settings: Compound concentration 1000.0 nM
# Serine/threonine-protein kinase 10 (Homo sapiens), sequence (O94804 whole entry, looked up): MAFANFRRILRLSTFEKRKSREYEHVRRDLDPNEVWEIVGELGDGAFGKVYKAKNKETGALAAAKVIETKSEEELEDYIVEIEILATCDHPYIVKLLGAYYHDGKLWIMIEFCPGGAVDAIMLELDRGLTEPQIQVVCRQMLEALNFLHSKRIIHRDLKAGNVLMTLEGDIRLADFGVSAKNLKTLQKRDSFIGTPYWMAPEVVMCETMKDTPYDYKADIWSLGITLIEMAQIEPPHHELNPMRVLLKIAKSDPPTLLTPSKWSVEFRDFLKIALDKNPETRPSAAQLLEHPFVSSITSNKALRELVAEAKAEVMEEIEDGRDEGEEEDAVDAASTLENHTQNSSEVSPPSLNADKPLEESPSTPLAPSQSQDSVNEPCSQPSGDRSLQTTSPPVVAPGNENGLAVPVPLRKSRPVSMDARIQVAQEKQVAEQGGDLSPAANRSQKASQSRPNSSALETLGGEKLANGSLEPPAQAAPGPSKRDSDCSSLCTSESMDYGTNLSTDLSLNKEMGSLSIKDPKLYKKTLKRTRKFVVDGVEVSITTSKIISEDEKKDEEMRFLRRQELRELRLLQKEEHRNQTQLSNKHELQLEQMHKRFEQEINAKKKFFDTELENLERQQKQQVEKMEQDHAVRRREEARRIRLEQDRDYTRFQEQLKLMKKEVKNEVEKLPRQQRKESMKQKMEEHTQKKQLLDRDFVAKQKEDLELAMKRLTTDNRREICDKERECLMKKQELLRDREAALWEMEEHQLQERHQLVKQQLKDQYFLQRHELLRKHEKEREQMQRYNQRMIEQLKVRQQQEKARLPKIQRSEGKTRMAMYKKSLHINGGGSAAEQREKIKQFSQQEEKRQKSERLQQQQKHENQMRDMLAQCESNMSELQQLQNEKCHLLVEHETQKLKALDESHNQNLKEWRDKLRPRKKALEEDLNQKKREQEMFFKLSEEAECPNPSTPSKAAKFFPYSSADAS
# [15] = target: Activin receptor type-2B (Homo sapiens) (UniProt Q13705); settings: Compound concentration 1000.0 nM
# [16] = target: Serine/threonine-protein kinase 3 (Homo sapiens) (UniProt Q13188); settings: Compound concentration 1000.0 nM
# [17] = target: Mitogen-activated protein kinase kinase kinase 10 (Homo sapiens) (UniProt Q02779); settings: Compound concentration 1000.0 nM
# [18] = system: Epidermal growth factor receptor (Homo sapiens), P00533 [L861Q]; settings: Compound concentration 1000.0 nM
# [19] = target: 5-hydroxytryptamine receptor 1A (Homo sapiens) (UniProt P08908); settings: Compound concentration 10.0 uM
# [20] = target: Serine/threonine-protein kinase PAK 1 (Homo sapiens) (UniProt Q13153); settings: Compound concentration 1000.0 nM
# [21] = target: D(4) dopamine receptor (Homo sapiens) (UniProt P21917); settings: Compound concentration 10.0 uM
# D(4) dopamine receptor (Homo sapiens), sequence (P21917 whole entry, canonical isoform): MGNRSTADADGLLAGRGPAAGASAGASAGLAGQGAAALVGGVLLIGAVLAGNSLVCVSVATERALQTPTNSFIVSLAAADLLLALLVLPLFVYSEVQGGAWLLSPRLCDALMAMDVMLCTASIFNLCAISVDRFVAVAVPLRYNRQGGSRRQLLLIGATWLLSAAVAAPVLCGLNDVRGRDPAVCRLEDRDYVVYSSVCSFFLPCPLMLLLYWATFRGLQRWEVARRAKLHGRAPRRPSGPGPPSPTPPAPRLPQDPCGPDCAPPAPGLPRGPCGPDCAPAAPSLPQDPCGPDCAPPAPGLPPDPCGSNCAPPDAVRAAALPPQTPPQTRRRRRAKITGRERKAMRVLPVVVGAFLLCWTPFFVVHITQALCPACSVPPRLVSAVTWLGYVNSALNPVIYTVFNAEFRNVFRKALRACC
# [22] = target: Casein kinase I isoform alpha-like (Homo sapiens) (UniProt Q8N752); settings: Compound concentration 1000.0 nM
# [23] = target: Serine/threonine-protein kinase D3 (Homo sapiens) (UniProt O94806); settings: Compound concentration 1000.0 nM
# [24] = target: Cyclin-dependent kinase 4 (Homo sapiens) (UniProt P11802); settings: Compound concentration 1000.0 nM
# [25] = target: Serine/threonine-protein kinase haspin (Homo sapiens) (UniProt Q8TF76); settings: Compound concentration 1000.0 nM
# [26] = target: Tyrosine-protein kinase Fgr (Homo sapiens) (UniProt P09769); settings: Compound concentration 1000.0 nM
# [27] = target: Serine/threonine-protein kinase WNK3 (Homo sapiens) (UniProt Q9BYP7); settings: Compound concentration 1000.0 nM
# [28] = target: cGMP-dependent protein kinase 1 (Homo sapiens) (UniProt Q13976); settings: Compound concentration 1000.0 nM
# [29] = target: Mitogen-activated protein kinase kinase kinase 11 (Homo sapiens) (UniProt Q16584); settings: Compound concentration 1000.0 nM
# Mitogen-activated protein kinase kinase kinase 11 (Homo sapiens), sequence (Q16584 whole entry, looked up): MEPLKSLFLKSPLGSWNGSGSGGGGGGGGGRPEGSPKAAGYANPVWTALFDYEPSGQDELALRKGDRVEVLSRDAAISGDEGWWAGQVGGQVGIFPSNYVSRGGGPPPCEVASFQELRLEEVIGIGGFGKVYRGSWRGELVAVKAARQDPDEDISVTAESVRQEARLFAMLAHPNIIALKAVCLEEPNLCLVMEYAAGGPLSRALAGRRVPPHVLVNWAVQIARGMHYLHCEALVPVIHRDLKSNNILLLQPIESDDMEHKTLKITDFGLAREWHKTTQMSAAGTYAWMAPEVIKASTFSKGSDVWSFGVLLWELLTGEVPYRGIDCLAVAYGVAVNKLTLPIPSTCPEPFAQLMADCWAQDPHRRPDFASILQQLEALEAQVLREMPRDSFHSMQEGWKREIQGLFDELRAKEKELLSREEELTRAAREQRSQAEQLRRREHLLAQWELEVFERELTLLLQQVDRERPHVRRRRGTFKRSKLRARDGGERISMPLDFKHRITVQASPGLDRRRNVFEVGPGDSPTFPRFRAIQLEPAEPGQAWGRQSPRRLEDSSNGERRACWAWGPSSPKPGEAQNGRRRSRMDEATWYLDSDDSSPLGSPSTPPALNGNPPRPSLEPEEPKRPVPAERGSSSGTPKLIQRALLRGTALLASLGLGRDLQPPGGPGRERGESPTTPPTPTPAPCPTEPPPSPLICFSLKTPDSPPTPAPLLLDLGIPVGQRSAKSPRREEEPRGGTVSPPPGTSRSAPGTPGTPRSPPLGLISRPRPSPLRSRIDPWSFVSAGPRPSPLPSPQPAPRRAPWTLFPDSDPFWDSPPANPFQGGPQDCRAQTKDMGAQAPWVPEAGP
# [30] = target: Receptor-interacting serine/threonine-protein kinase 4 (Homo sapiens) (UniProt P57078); settings: Compound concentration 1000.0 nM
# [31] = target: RAC-gamma serine/threonine-protein kinase (Homo sapiens) (UniProt Q9Y243); settings: Compound concentration 1000.0 nM
# [32] = target: cAMP-dependent protein kinase catalytic subunit PRKX (Homo sapiens) (UniProt P51817); settings: Compound concentration 1000.0 nM
# [33] = target: Receptor-type tyrosine-protein kinase FLT3 (Homo sapiens) (UniProt P36888); settings: Compound concentration 1000.0 nM
# Receptor-type tyrosine-protein kinase FLT3 (Homo sapiens), sequence (P36888 whole entry): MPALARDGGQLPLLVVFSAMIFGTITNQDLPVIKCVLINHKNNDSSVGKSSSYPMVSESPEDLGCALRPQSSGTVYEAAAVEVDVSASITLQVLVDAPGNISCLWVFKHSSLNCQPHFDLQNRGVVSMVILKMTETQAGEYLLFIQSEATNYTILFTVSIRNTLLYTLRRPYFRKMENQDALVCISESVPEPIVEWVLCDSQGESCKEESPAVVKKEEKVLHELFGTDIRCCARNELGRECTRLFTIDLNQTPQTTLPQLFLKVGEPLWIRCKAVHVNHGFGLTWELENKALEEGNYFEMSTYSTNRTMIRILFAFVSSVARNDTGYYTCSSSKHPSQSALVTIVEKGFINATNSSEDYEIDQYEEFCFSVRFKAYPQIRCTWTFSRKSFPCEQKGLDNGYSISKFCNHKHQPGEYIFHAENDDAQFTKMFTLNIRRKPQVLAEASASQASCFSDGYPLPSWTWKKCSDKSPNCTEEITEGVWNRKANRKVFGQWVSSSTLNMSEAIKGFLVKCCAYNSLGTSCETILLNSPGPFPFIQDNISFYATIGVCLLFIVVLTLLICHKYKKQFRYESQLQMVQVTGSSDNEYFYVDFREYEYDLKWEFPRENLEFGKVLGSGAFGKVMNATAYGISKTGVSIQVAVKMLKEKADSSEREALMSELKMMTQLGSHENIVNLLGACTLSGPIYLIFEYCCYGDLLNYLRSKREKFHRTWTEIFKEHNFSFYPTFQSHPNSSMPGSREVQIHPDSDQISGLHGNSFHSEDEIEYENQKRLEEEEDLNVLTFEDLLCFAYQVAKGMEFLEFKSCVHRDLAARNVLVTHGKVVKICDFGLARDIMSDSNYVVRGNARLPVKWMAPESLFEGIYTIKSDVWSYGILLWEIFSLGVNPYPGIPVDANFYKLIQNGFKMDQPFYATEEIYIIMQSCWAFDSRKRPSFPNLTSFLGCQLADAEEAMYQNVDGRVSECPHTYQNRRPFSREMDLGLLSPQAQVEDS
# [34] = target: NUAK family SNF1-like kinase 2 (Homo sapiens) (UniProt Q9H093); settings: Compound concentration 1000.0 nM
# [35] = target: SRSF protein kinase 3 (Homo sapiens) (UniProt Q9UPE1); settings: Compound concentration 1000.0 nM
# [36] = target: Tyrosine-protein kinase receptor UFO (Homo sapiens) (UniProt P30530); settings: Compound concentration 1000.0 nM
# [37] = system: Phosphatidylinositol 4,5-bisphosphate 3-kinase catalytic subunit alpha isoform (Homo sapiens), P42336 [C420R]; settings: Compound concentration 1000.0 nM
# Phosphatidylinositol 4,5-bisphosphate 3-kinase catalytic subunit alpha isoform (Homo sapiens), P42336 [C420R], sequence (P42336 whole entry C420R, canonical isoform): as the sequence (P42336 whole entry E545A, canonical isoform) above, with C420R, A545E counted along it
# [38] = target: Tyrosine-protein kinase JAK2 (Homo sapiens) (UniProt O60674); settings: Compound concentration 1000.0 nM
# [39] = target: Phosphatidylinositol 4-kinase beta (Homo sapiens) (UniProt Q9UBF8); settings: Compound concentration 1000.0 nM
# [40] = target: Aurora kinase A (Homo sapiens) (UniProt O14965); settings: Compound concentration 1000.0 nM
# [41] = target: Tyrosine-protein kinase Srms (Homo sapiens) (UniProt Q9H3Y6); settings: Compound concentration 1000.0 nM
# [42] = system: Mast/stem cell growth factor receptor Kit (Homo sapiens), P10721 [D816H]; settings: Compound concentration 1000.0 nM
# [43] = target: Cyclin-dependent kinase 2 (Homo sapiens) (UniProt P24941); settings: Compound concentration 1000.0 nM
# [44] = target: Ephrin type-B receptor 1 (Homo sapiens) (UniProt P54762); settings: Compound concentration 1000.0 nM
# [45] = target: Dual specificity mitogen-activated protein kinase kinase 3 (Homo sapiens) (UniProt P46734); settings: Compound concentration 1000.0 nM
# [46] = target: Ephrin type-B receptor 6 (Homo sapiens) (UniProt O15197); settings: Compound concentration 1000.0 nM
compound,measurement,setting,value
COc1cc(-c2cn([C@H]3CCc4c(F)cccc4N(CC(F)(F)F)C3=O)nn2)ccc1-n1cnc(C)c1,residual activity,[1],100%
same,residual activity,[2],100%
same,residual activity,[3],100%
same,residual activity,[4],81%
same,residual activity,[5],100%
same,residual activity,[6],100%
same,residual activity,[7],100%
same,residual activity,[8],93%
same,inhibition,[9],-8.33%
same,residual activity,[10],92%
same,inhibition,[11],26.2%
same,residual activity,[12],100%
same,residual activity,[13],100%
same,residual activity,[14],100%
same,residual activity,[15],100%
same,residual activity,[16],100%
same,residual activity,[17],100%
same,residual activity,[18],100%
same,inhibition,[19],19.4%
same,residual activity,[20],93%
same,inhibition,[21],-7.76%
same,residual activity,[22],100%
same,residual activity,[23],100%
same,residual activity,[24],100%
same,residual activity,[25],87%
same,residual activity,[26],100%
same,residual activity,[27],100%
same,residual activity,[28],100%
same,residual activity,[29],100%
same,residual activity,[30],56%
same,residual activity,[31],100%
same,residual activity,[32],100%
same,residual activity,[33],89%
same,residual activity,[34],100%
same,residual activity,[35],100%
same,residual activity,[36],98%
same,residual activity,[37],75%
same,residual activity,[38],100%
same,residual activity,[39],79%
same,residual activity,[40],100%
same,residual activity,[41],100%
same,residual activity,[42],67%
same,residual activity,[43],100%
same,residual activity,[44],100%
same,residual activity,[45],100%
same,residual activity,[46],100%
COc1cc(-c2cn([C@H]3CCc4ccccc4N(CC(F)(F)F)C3=O)nn2)ccc1-n1ccc(C)n1,residual activity,[1],100%
same,residual activity,[2],100%
same,residual activity,[3],71%
same,residual activity,[4],80%
same,residual activity,[5],100%
same,residual activity,[6],100%
same,residual activity,[7],98%
same,residual activity,[8],93%
same,inhibition,[9],20.1%
same,residual activity,[10],64%
same,inhibition,[11],6.94%
same,residual activity,[12],92%
same,residual activity,[13],86%
same,residual activity,[14],100%
same,residual activity,[15],100%
same,residual activity,[16],84%
same,residual activity,[17],96%
same,residual activity,[18],100%
same,inhibition,[19],1.18%
same,residual activity,[20],100%
same,inhibition,[21],52.4%
same,residual activity,[22],100%
same,residual activity,[23],100%
same,residual activity,[24],90%
same,residual activity,[25],83%
same,residual activity,[26],90%
same,residual activity,[27],100%
same,residual activity,[28],100%
same,residual activity,[29],100%
same,residual activity,[30],52%
same,residual activity,[31],89%
same,residual activity,[32],95%
same,residual activity,[33],85%
same,residual activity,[34],88%
same,residual activity,[35],100%
same,residual activity,[36],93%
same,residual activity,[37],68%
same,residual activity,[38],34%
same,residual activity,[39],87%
same,residual activity,[40],58%
same,residual activity,[41],84%
same,residual activity,[42],75%
same,residual activity,[43],100%
same,residual activity,[44],100%
same,residual activity,[45],89%
same,residual activity,[46],100%
